For 10 compounds, MEC and IC50 results are on record in patent US20170233413A1, “SUBSTITUTED ANNULATED PYRIMIDINES AND USE THEREOF” (Bayer Pharma Aktiengesellschaft, priority 2014, published 2017).

The target of assay [1] is T1, recombinant guanylate cyclase reporter cell line (Rattus norvegicus, UniProt P19686+P20595).
T1 construct: expressed in transfected cells
T1 sequence (P19686 1-690): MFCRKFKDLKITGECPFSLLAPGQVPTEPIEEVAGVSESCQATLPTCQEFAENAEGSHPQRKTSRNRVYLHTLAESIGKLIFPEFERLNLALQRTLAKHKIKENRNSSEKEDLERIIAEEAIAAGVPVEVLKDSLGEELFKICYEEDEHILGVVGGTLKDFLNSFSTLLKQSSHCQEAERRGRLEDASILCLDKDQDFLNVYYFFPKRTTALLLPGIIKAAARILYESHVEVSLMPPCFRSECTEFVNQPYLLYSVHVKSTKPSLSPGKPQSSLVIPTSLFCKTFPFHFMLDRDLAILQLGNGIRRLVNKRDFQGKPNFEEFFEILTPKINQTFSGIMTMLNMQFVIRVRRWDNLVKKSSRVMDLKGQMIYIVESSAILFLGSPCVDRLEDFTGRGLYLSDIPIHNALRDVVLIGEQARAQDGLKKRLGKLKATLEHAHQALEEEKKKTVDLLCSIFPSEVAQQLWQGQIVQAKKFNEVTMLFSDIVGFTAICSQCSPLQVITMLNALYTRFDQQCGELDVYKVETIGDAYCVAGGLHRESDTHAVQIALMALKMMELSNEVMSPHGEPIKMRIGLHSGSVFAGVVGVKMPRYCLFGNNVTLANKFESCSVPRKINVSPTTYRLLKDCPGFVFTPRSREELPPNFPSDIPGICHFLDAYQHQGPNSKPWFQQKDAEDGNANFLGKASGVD
T1 sequence (P20595 1-619): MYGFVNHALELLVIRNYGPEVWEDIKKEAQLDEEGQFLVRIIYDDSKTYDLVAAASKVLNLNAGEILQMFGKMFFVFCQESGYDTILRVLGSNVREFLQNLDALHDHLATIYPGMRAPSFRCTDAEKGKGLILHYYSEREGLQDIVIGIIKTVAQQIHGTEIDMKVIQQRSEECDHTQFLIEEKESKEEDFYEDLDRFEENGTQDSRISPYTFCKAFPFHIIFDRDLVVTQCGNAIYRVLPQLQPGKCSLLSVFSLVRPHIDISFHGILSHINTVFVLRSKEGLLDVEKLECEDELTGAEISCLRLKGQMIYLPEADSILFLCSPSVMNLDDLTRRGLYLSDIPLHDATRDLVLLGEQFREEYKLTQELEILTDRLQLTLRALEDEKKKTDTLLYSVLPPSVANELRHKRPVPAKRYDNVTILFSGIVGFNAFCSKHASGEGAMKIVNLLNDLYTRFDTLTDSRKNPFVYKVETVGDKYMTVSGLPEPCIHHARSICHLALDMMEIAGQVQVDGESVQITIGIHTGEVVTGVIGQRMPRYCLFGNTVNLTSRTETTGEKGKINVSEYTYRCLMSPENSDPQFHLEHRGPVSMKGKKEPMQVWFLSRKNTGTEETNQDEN
The assay is described as follows: Effect on a recombinant guanylate cyclase reporter cell line. The class given is cell-based. The note with it: MEC = minimum effective concentration; in some cases means of individual determinations. On the procedure: B-2. Effect on a Recombinant Guanylate Cyclase Reporter Cell Line
The cellular activity of the compounds of the invention is determined using a recombinant guanylate cyclase reporter cell line, as described in F. Wunder et al., Anal. Biochem. 2005, 339, 104-112. Representative values (MEC=minimum effective concentration) for the compounds of the invention are shown in the table below (Table 1B; in some cases as means of individual determinations): […]

Assay [2] has as its target T2, human phosphodiesterase 5 (PDE 5) (Homo sapiens, UniProt O76074).
T2 construct: PDE 5 preparations are obtained from human platelets by disruption; from tissue; host or cells: human platelets
The experiment in a line: Inhibition of human phosphodiesterase 5 (PDE 5). The class given is biochemical. The note with it: PDE 5 preparation from human platelets; in some cases means of individual determinations. On the procedure:
B-3. Inhibition of Human Phosphodiesterase 5 (PDE 5)
PDE 5 preparations are obtained from human platelets by disruption (Microfluidizer®, 800 bar, 3 passes), followed by centrifugation (75 000 g, 60 min, 4° C.) and ion exchange chromatography of the supernatant on a Mono Q 10/10 column (linear sodium chloride gradient, elution with a 0.2-0.3M solution of sodium chloride in buffer (20 mM Hepes pH 7.2, 2 mM magnesium chloride). Fractions having PDE 5 activity are combined (PDE 5 preparation) and stored at −80° C.
To determine their in vitro action on human PDE 5, the test substances are dissolved in 100% DMSO and serially diluted. Typically, dilution series (1:3) from 200 μM to 0.091 μM are prepared (resulting final concentrations in the test: 4 μM to 0.0018 μM). In each case 2 μl of the diluted substance solutions are placed into the wells of microtitre plates (Isoplate-96/200W; Perkin Elmer). Subsequently, 50 μl of a dilution of the above-described PDE 5 preparation are added. The dilution of the PDE 5 preparation is chosen such that during the later incubation less than 70% of the substrate are converted (typical dilution: 1:100; dilution buffer: 50 mM tris/hydrochloric acid pH 7.5, 8.3 mM magnesium chloride, 1.7 mM EDTA, 0.2% BSA). The substrate, [8-^3H] cyclic guanosine-3′,5′-monophosphate (1 μCi/μl; Perkin Elmer), is diluted 1:2000 with assay buffer (50 mM tris/hydrochloric acid pH 7.5, 8.3 mM magnesium chloride, 1.7 mM EDTA) to a concentration of 0.0005 μCi/μl. By addition of 50 μl (0.025 μCi) of the diluted substrate, the enzyme reaction is finally started. The test mixtures are incubated at room temperature for 60 min and the reaction is stopped by adding 25 μl of a suspension of 18 mg/ml yttrium scintillation proximity beads in water (phosphodiesterase beads for SPA assays, RPNQ 0150, Perkin Elmer). The microtitre plates are sealed with a film and left to stand at room temperature for 60 min. Subsequently, the plates are analysed for 30 s per well in a Microbeta scintillation counter (Perkin Elmer). IC50 values are determined using the graphic plot of the substance concentration against percentage PDE 5 inhibition.

Consider `C=CCONC(=O)c1nc(-c2nn(Cc3ccccc3F)c3ncccc23)nc2c1C(C)(C)C(=O)N2` [Example 62, 2-[1-(2-fluorobenzyl)-1H-pyrazolo[3,4-b]pyridin-3-yl]-5,5-dimethyl-6-oxo-N-(prop-2-en-1-yloxy)-6,7-dihydro-5H-pyrrolo[2,3-d]pyrimidine-4-carboxamide], for which the MEC in assay [1] is 0.1 µM. Further, the midpoint of inhibition in assay [2], the IC50, lay at 18 nM.

With `CC1(C)C(=O)Nc2nc(-c3nn(Cc4ccccc4F)c4ncccc34)nc(C(=O)NCCC(F)(F)F)c21` [Example 74, 2-[1-(2-fluorobenzyl)-1H-pyrazolo[3,4-b]pyridin-3-yl]-5,5-dimethyl-6-oxo-N-(3,3,3-trifluoropropyl)-6,7-dihydro-5H-pyrrolo[2,3-d]pyrimidine-4-carboxamide], in assay [1], the MEC was determined as 0.1 µM. This compound also had an IC50 in assay [2] of 26 nM.

On to `CC(CNC(=O)c1nc(-c2nn(Cc3ccccc3F)c3ncccc23)nc2c1C(C)(C)C(=O)N2)N(C)C` (racemic) [Example 105, rac-N-[2-(dimethylamino)propyl]-2-[1-(2-fluorobenzyl)-1H-pyrazolo[3,4-b]pyridin-3-yl]-5,5-dimethyl-6-oxo-6,7-dihydro-5H-pyrrolo[2,3-d]pyrimidine-4-carboxamide], for which, in assay [1], the MEC came to 1 µM. Besides, the IC50 in assay [2] came to 620 nM.

In the case of `CC1(C)C(=O)Nc2nc(-c3nn(Cc4ccccc4F)c4ncccc34)nc(C(=O)Nc3cc[nH]n3)c21` [Example 87, 2-[1-(2-fluorobenzyl)-1H-pyrazolo[3,4-b]pyridin-3-yl]-5,5-dimethyl-6-oxo-N-(1H-pyrazol-3-yl)-6,7-dihydro-5H-pyrrolo[2,3-d]pyrimidine-4-carboxamide], the MEC in assay [1] came to 0.3 µM. In assay [2], this compound gave an IC50 of 24 nM.

Consider `Cc1nc2c(cc1F)c(-c1nc3c(c(C(=O)NC(C4CC4)C4CC4)n1)C(C)(C)C(=O)N3)nn2Cc1cccc(F)c1F` [Example 39], for which the MEC in assay [1] worked out at 0.3 µM. Besides, the IC50 in assay [2] worked out at 34 nM.

For the compound `CC(C)(O)CNC(=O)c1nc(-c2nn(Cc3ccccc3F)c3ncc(F)cc23)nc2c1C(C)(C)C(=O)N2` [Example 29], the MEC in assay [1] amounted to 0.3 µM. Moreover, the half-inhibitory concentration (IC50) in assay [2] turned out to be 12 nM.

As to `CC(C)CCNC(=O)c1nc(-c2nn(Cc3ccccc3F)c3ncccc23)nc2c1C(C)(C)C(=O)N2` [Example 132, 2-[1-(2-fluorobenzyl)-1H-pyrazolo[3,4-b]pyridin-3-yl]-5,5-dimethyl-N-(3-methylbutyl)-6-oxo-6,7-dihydro-5H-pyrrolo[2,3-d]pyrimidine-4-carboxamide], in assay [1], the MEC worked out at 0.3 µM. The half-maximal inhibitory concentration (IC50) in assay [2] was 33 nM.

As for `CC1(C)C(=O)Nc2nc(-c3nn(Cc4ccccc4F)c4ncccc34)nc(C(=O)NCc3ccco3)c21` [Example 69, 2-[1-(2-fluorobenzyl)-1H-pyrazolo[3,4-b]pyridin-3-yl]-N-(furan-2-ylmethyl)-5,5-dimethyl-6-oxo-6,7-dihydro-5H-pyrrolo[2,3-d]pyrimidine-4-carboxamide], the MEC in assay [1] amounted to 0.1 µM. This compound also registered an IC50 in assay [2] of 10 nM.

Turning to `CSCCCNC(=O)c1nc(-c2nn(Cc3ccccc3F)c3ncccc23)nc2c1C(C)(C)C(=O)N2` [Example 61, 2-[1-(2-fluorobenzyl)-1H-pyrazolo[3,4-b]pyridin-3-yl]-5,5-dimethyl-N-[3-(methylsulfanyl)propyl]-6-oxo-6,7-dihydro-5H-pyrrolo[2,3-d]pyrimidine-4-carboxamide], the MEC in assay [1] was 0.1 µM. In assay [2], this compound displayed a half-inhibitory concentration (IC50) of 16 nM.

Take `CC1(C)C(=O)Nc2nc(-c3nn(Cc4ccccc4F)c4ncccc34)nc(C(=O)NCCOCC(F)(F)F)c21` [Example 96, 2-[1-(2-fluorobenzyl)-1H-pyrazolo[3,4-b]pyridin-3-yl]-5,5-dimethyl-6-oxo-N-[2-(2,2,2-trifluoroethoxy)ethyl]-6,7-dihydro-5H-pyrrolo[2,3-d]pyrimidine-4-carboxamide]: the MEC in assay [1] was 0.03 µM. The compound also displayed an IC50 in assay [2] of 62 nM.
